Measurements published in patent US20240083845A1 (priority 2020, published 2024).

Biological target: SARS-CoV-2 Mpro (Severe acute respiratory syndrome coronavirus 2, UniProt P0DTD1)
Assay: SARS-CoV-2 Mpro enzyme assay (FRET)
Format: biochemical
Details: FRET substrate Dabcyl-KTSAVLQSGFRKM-E(Edans)-Amide, 20 nM enzyme, 30 min preincubation at 30° C., mean n=2; read-out: SARS-CoV-2 Mpro enzyme assay pKi (converted)

Question: How did the Ki turn out when `O=C(/C=C/c1ccc(Cl)cc1F)N[C@@H](CC1CCC1)C(=O)NC(C[C@@H]1CCNC1=O)C(=O)C(=O)NC1CC1` (stereo partly drawn) [Example 31, 3-((S)-2-((E)-3-(4-chloro-2-fluorophenyl)acrylamido)-3-cyclobutylpropanamido)-N-cyclopropyl-2-oxo-4-((S)-2-oxopyrrolidin-3-yl)butanamide] was run?
Answer: 0.0251 µM

Question: `CC[C@@H](CC(=O)N[C@@H](CC1CC1)C(=O)NC(C[C@@H]1CCNC1=O)C(=O)C(=O)NC1CC1)c1ccccc1` (stereo partly drawn) [Example 32, (3 S)-N-((2S)-3-cyclopropyl-1-((4-(cyclopropylamino)-3,4-dioxo-1-((S)-2-oxopyrrolidin-3-yl)butan-2-yl)amino)-1-oxopropan-2-yl)-3-phenylpentanamide] was tested. Which Ki did it give?
Answer: 0.0126 µM

Question: Which Ki does the source give for `CC[C@H](CC(=O)N[C@@H](CC1CC1)C(=O)NC(C[C@@H]1CCNC1=O)C(=O)C(=O)NC1CC1)c1ccccc1` (stereo partly drawn) [Example 33, (3R)-N-((2S)-3-cyclopropyl-1-((4-(cyclopropylamino)-3,4-dioxo-1-((S)-2-oxopyrrolidin-3-yl)butan-2-yl)amino)-1-oxopropan-2-yl)-3-phenylpentanamide] here?
Answer: 0.0251 µM
